Molecules are shown by their SMILES.

Sequence of HCV NS3-4A serine protease (full-length NS3-4A protein) (P26664 1027-1657): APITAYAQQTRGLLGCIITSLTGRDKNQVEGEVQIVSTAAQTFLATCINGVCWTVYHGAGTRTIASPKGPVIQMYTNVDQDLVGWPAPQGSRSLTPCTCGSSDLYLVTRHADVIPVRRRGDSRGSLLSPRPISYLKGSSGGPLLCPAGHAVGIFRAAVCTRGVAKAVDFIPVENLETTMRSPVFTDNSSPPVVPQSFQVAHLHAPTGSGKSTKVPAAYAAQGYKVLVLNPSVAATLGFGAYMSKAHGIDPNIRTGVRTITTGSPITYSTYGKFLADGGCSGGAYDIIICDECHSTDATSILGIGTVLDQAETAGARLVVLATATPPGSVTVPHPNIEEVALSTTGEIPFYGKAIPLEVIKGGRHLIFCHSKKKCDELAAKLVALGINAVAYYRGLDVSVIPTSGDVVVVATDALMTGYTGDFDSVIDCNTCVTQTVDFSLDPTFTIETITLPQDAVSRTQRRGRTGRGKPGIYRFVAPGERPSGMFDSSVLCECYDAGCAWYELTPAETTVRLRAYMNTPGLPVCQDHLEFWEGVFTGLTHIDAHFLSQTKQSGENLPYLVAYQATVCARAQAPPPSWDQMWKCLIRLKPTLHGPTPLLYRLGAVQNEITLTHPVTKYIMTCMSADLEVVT
Sequence of HCV NS3-4A serine protease (full-length NS3-4A protein) (P26664 1658-1711 partner): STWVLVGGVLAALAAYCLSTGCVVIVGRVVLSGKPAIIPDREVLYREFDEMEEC

This test has as its target HCV NS3-4A serine protease (full-length NS3-4A protein) (Hepatitis C virus genotype 1a (isolate 1) (HCV), UniProt P26664). Nature of the test: HCV NS3-4A protease assay. Type of test: biochemical, HCV genotype 1a. The note with it: strain HCV-1, fluorogenic peptide substrate, read-out: Protease assay Ex. 12 IC50. The method, then:
The inhibitory activity of certain compounds of Table A against HCV NS3-4A serine protease is determined in a homogenous assay using the full-length NS3-4A protein (genotype 1a, strain HCV-1) and a commercially available internally-quenched fluorogenic peptide substrate as described by Taliani, M., et al. 1996 Anal. Biochem. 240:60-67, which is incorporated by reference in its entirety.
Consider `C=C[C@@H]1C[C@]1(NC(=O)[C@@H]1C[C@@]2(CN1C(=O)[C@@H](NC(=O)[C@@H](NC(=O)[C@@H]1CCCCN1C1CCCC1)C1CCCCC1)C(C)(C)C)C(C)(C)C21CCC1)C(=O)NS(=O)(=O)N(CC)CC` [Compound 64, (5R,8S)-7-[(2S)-2-{[(2S)-2-cyclohexyl-2-({[(2S)-1-cyclopentylpiperidin-2-yl]carbonyl}amino)acetyl]amino}-3,3-dimethylbutanoyl]-N-[(1R,2S)-1-{[(diethylamino)sulfonyl]carbamoyl}-2-vinylcyclopropyl]-10,10-dimethyl-7-azadispiro[3.0.4.1]decane-8-carboxamide], for which the IC50 was determined as 2 nM.

On to `C=C[C@@H]1C[C@]1(NC(=O)[C@@H]1C[C@@]2(CN1C(=O)[C@@H](NC(=O)[C@@H](NC(=O)[C@@H]1CCCN1C(=O)OCCF)C1CCCCC1)C1CCOCC1)C(C)(C)C21CCC1)C(=O)NS(=O)(=O)N1CCCC1` [Compound 76, 2-fluoroethyl(2S)-2-{[(1S)-1-cyclohexyl-2-{[(1S)-2-[(5R,8S)-10,10-dimethyl-8-({(1R,2S)-1-[(pyrrolidin-1-ylsulfonyl)carbamoyl]-2-vinylcyclopropyl}carbamoyl)-7-azadispiro[3.0.4.1]dec-7-yl]-2-oxo-1-(tetrahydro-2H-pyran-4-yl)ethyl]amino}-2-oxoethyl]carbamoyl}pyrrolidine-1-carboxylate], for which the IC50 came out at 80 nM.

Consider `C=C[C@@H]1C[C@]1(NC(=O)C1C[C@@]2(CN1C(=O)[C@@H](NC(=O)C1CCCNC1=O)C(C)(C)C)C(C)(C)C21CCC1)C(=O)NS(=O)(=O)N1CCCC1` (stereo partly drawn) [Compound 78, (5R)-7-[(2S)-3,3-dimethyl-2-{[(2-oxopiperidin-3-yl)carbonyl]amino}butanoyl]-10,10-dimethyl-N-{(1R,2S)-1-[(pyrrolidin-1-ylsulfonyl)carbamoyl]-2-vinylcyclopropyl}-7-azadispiro[3.0.4.1]decane-8-carboxamide], for which the IC50 was determined as 650 nM.

`C=C[C@@H]1C[C@]1(NC(=O)[C@@H]1C[C@@]2(CN1C(=O)[C@@H](NC(=O)[C@@H](NC(=O)[C@@H]1CCCN1C1CCCC1)C1CCCCC1)C(C)(C)C)C(C)(C)C21CCC1)C(=O)NS(=O)(=O)N1CCCC1` [Compound 28, (5R,8S)-7-[(2S)-2-{[(2S)-2-cyclohexyl-2-({[(2S)-1-cyclopentylpyrrolidin-2-yl]carbonyl}amino)acetyl]amino}-3,3-dimethylbutanoyl]-10,10-dimethyl-N-{(1R,2S)-1-[(pyrrolidin-1-ylsulfonyl)carbamoyl]-2-vinylcyclopropyl}-7-azadispiro[3.0.4.1]decane-8-carboxamide]: the 50% inhibitory concentration (IC50) was determined as 2 nM.

Take `C=C[C@@H]1C[C@]1(NC(=O)[C@@H]1C[C@@]2(CN1C(=O)[C@@H](NC(=O)[C@@H](NC(=O)[C@@H]1CCCCN1C(C)C)C(C)(C)C)C(C)(C)C)C(C)(C)C21CCC1)C(=O)NS(=O)(=O)N1CCOCC1` [Compound 6, (5R,8S)-7-[(2S)-2-{[(2S)-2-({[(2S)-1-isopropylpiperidin-2-yl]carbonyl}amino)-3,3-dimethylbutanoyl]amino}-3,3-dimethylbutanoyl]-10,10-dimethyl-N-{(1R,2S)-1-[(morpholin-4-ylsulfonyl)carbamoyl]-2-vinylcyclopropyl}-7-azadispiro[3.0.4.1]decane-8-carboxamide]: the IC50 was found to be 45 nM.

For `C=C[C@@H]1C[C@]1(NC(=O)[C@@H]1C[C@@]2(CN1C(=O)[C@@H](NC(=O)[C@@H](NC(=O)[C@@H]1CCCCN1C(C)C)C1(C)CCCCC1)C1(C)CCOCC1)C(C)(C)C21CCC1)C(=O)NS(=O)(=O)N(CC)CC` [Compound 152, (5R,8S)-N-[(1R,2S)-1-{[(diethylamino)sulfonyl]carbamoyl}-2-vinylcyclopropyl]-7-[(2S)-2-{[(2S)-2-({[(2S)-1-isopropylpiperidin-2-yl]carbonyl}amino)-2-(1-methylcyclohexyl)acetyl]amino}-2-(4-methyltetrahydro-2H-pyran-4-yl)acetyl]-10,10-dimethyl-7-azadispiro[3.0.4.1]decane-8-carboxamide], the IC50 was found to be 1.1 nM.

Values taken from patent publication US8613914B2, “Peptidomimetic sulfamide compounds and antiviral uses thereof” (Novartis AG, priority 2009, dated 2013).
